In patent publication US10125123B2, “Small molecule IRE1-α inhibitors” (Cornell University, priority 2016, dated 2018):

Tests used:
[1] = molecular target: T1, IRE1α (Homo sapiens, UniProt O75460); experiment: In vitro FRET assay (XBP1 RNA probe cleavage by IRE1α); details: biochemical FRET assay, 2 nM IRE1α
T1 construct: purchased SignalChem
Method: In vitro FRET assay was performed to evaluate the ability of select compounds to inhibit IRE1, the results of which are summarized in the following table.
To perform the in vitro FRET assay, 1× complete assay buffer (CAB; […], 50 mM sodium citrate pH 7.15, 1 mM magnesium acetate, 0.02% Tween 20) was used to dilute SignalChem IRE1α in protein to a final concentration of 2 nM. Selected compounds were serially diluted with DMSO in a non-binding black 384-well plate for a total of 15 μl in each well. 2 μl of the serially diluted compound or DMSO control were then added to new wells containing 98 μl of 1×CAB, for a total volume of 100 μl, 10 μl of which were then transferred to wells of a new plate. 5 μl of the diluted IRE1α was then added to each well. 5 μl of a […] XBP1 RNA probe was then added to each well. Fluorescence was then read over 30 minutes in kinetic mode (485/515 nm). Two RNA probes were used, XBP1 wildtype (CAUGUCCGCAGCACAUG; SEQ ID NO: 1) which is able to be spliced by active IRE1α or XBP1 mutant (CAUGUCCCCAGCACAUG; SEQ ID NO: 2) which is unable to be spliced. Each probe contained a 5′ 6-FAM modification and a 3′ IOWA Black FQ modification. […]

[2] = molecular target: IRE1α kinase and endoribonuclease domains (Homo sapiens, UniProt O75460); details: cited from earlier work
Sequence of IRE1α kinase and endoribonuclease domains (O75460 19-977): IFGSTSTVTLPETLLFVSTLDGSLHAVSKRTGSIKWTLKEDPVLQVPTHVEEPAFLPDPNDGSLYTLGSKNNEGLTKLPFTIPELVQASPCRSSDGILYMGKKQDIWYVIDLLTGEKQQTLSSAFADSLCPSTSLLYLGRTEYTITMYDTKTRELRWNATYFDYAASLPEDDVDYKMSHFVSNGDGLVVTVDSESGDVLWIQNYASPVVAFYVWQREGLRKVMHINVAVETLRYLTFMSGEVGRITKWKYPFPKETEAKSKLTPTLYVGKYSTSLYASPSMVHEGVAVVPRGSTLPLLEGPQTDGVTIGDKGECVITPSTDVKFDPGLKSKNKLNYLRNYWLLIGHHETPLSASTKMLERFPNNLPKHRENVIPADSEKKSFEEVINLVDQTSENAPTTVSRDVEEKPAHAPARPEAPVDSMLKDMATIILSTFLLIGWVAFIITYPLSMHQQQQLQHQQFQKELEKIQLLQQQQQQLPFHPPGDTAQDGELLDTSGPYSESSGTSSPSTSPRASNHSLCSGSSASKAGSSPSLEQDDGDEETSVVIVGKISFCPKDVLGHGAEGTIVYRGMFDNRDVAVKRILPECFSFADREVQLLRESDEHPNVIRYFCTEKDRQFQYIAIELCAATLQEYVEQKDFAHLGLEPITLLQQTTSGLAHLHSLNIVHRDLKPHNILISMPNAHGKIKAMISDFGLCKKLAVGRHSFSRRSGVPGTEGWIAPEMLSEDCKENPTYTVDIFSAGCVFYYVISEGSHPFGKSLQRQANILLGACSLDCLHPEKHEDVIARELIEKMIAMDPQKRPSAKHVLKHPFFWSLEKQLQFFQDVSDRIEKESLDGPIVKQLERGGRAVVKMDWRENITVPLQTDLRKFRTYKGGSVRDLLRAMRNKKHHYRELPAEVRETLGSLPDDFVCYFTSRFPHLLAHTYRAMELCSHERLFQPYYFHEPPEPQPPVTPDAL

[3] = system: myeloid dendritic cells; experiment: Lipid accumulation in dendritic cells exposed to ovarian cancer ascites supernatants (BODIPY 493/503 staining, flow cytometry); assay type: cell-based, mouse
Source text: FIG. 1D is flow cytometry analysis of lipid accumulation in mouse bone marrow-derived dendritic cells exposed to the indicated treatments, measured by BODIPY 493/503 staining intensity.

T1 sequence (O75460 19-977): as above

Row | Molecule | EC50 [1] [µM] | further results
1 | Cn1nc(NS(=O)(=O)c2ccccc2)cc1-c1ccc2cc(N)ncc2c1 [Compound 66, N-(5-(3-aminoisoquinolin-7-yl)-1-methyl-1H-pyrazol-3-yl)benzenesulfonamide] | > 100 | –
2 | Cn1nc(NC(=O)c2ccccc2)cc1-c1ccc2cc(N)ncc2c1 [Compound 67, N-(5-(3-aminoisoquinolin-7-yl)-1-methyl-1H-pyrazol-3-yl)benzamide] | > 100 | –
3 | Cn1nc(NC(=O)Nc2ccccc2F)cc1-c1ccc2ccncc2c1 [Compound 69, 1-(2-fluorophenyl)-3-(5-(isoquinolin-7-yl)-1-methyl-1H-pyrazol-3-yl)urea] | > 100 | –
4 | CN1CCC(=Cc2ccc(NC(=O)Nc3cc(-c4ccc5cc(N)ncc5c4)n(C)n3)cc2C(F)(F)F)CC1 [Compound 71, 1-(5-(3-aminoisoquinolin-7-yl)-1-methyl-1H-pyrazol-3-yl)-3-(4-((1-methylpiperidin-4-ylidene)methyl)-3-(trifluoromethyl)phenyl)urea] | 5 to 50 | –
5 | Cn1nc(NS(=O)(=O)c2cccc(C(F)(F)F)c2)cc1-c1ccc2ccncc2c1 [Compound 72, N-(5-(isoquinolin-7-yl)-1-methyl-1H-pyrazol-3-yl)-3-(trifluoromethyl)benzene-sulfonamide] | 50 to 100 | –
6 | Cn1nc(Nc2c(NC3CCCC3)c(=O)c2=O)cc1-c1ccc2nc(N)ncc2c1 [Compound 76, 3-((5-(2-aminoquinazolin-6-yl)-1-methyl-1H-pyrazol-3-yl)amino)-4-(cyclopentylamino)cyclobut-3-ene-1,2-dione] | 50 to 100 | –
7 | CC(C)n1nc(-c2ccc(NC(=O)Nc3cccc(C(F)(F)F)c3)cc2)c2c(N)ncnc21 [SRC inhibitor, 1-(4-(4-Amino-1-isopropyl-1H-pyrazolo[3,4-d]pyrimidin-3-yl)phenyl)-3-(3-(trifluoromethyl)phenyl)urea] | – | inhibition of IRE1α kinase and endoribonuclease domains [2]: inhibits
8 | vitamin E | – | pathological intracellular lipid accumulation [3]: suppressed

Second part, led by results:

Row | EC50 [1] [µM] | Molecule | further results
9 | > 100 | Cn1nc(NC(=O)NCc2ccccc2)cc1-c1ccc2ccncc2c1 [Compound 63, 1-benzyl-3-(5-(isoquinolin-7-yl)-1-methyl-1H-pyrazol-3-yl)urea] | –
10 | > 100 | Cn1nc(NC(=O)Nc2ccccc2)cc1-c1ccc2ccncc2c1 [Compound 64, 1-(5-(isoquinolin-7-yl)-1-methyl-1H-pyrazol-3-yl)-3-phenylurea] | –
11 | > 100 | COc1ccccc1NC(=O)Nc1cc(-c2ccc3ccncc3c2)n(C)n1 [Compound 65, 1-(5-(isoquinolin-7-yl)-1-methyl-1H-pyrazol-3-yl)-3-(2-methoxyphenyl)urea] | –
12 | > 100 | CSc1ccccc1NC(=O)Nc1cc(-c2ccc3ccncc3c2)n(C)n1 [Compound 68, 1-(5-(isoquinolin-7-yl)-1-methyl-1H-pyrazol-3-yl)-3-(2-(methylthio)phenyl)urea] | –
13 | > 100 | CNS(=O)(=O)c1ccc(NC(=O)Nc2cc(-c3ccc4ccncc4c3)n(C)n2)cc1 [Compound 70, 4-(3-(5-(isoquinolin-7-yl)-1-methyl-1H-pyrazol-3-yl)ureido)-N-methylbenzenesulfonamide] | –
14 | ≤ 5 | CN1CCN(Cc2ccc(Nc3c(Nc4cc(-c5ccc6ccncc6c5)n(C)n4)c(=O)c3=O)cc2C(F)(F)F)CC1 [Compound 73, 3-((5-(isoquinolin-7-yl)-1-methyl-1H-pyrazol-3-yl)amino)-4-((4-((4-methylpiperazin-1-yl)methyl)-3-(trifluoromethyl)phenyl)amino) cyclobut-3-ene-1,2-dione] | –
15 | ≤ 5 | CN1CCN(Cc2ccc(Nc3c(Nc4cc(-c5ccc6ccncc6c5)n(C)n4)c(=O)c3=O)cc2)CC1 [Compound 74, 3-((5-(isoquinolin-7-yl)-1-methyl-1H-pyrazol-3-yl)amino)-4-((4-((4-methylpiperazin-1-yl)methyl)phenyl)amino)cyclo-but-3-ene-1,2-dione] | –
16 | ≤ 5 | CN1CCN(Cc2ccc(Nc3c(Nc4cc(-c5ccc6nc(N)ncc6c5)n(C)n4)c(=O)c3=O)cc2C(F)(F)F)CC1 [Compound 75, 3-((5-(2-aminoquinazolin-6-yl)-1-methyl-1H-pyrazol-3-yl)amino)-4-((4-((4-methylpiperazin-1-yl)methyl)-3-(trifluoromethyl)phenyl)amino) cyclobut-3-ene-1,2-dione] | –
